According to US20200377958A1, “BIOMARKERS AND METHODS FOR TREATMENT WITH NAE INHIBITORS” (Millennium Pharmaceuticals, Inc., priority 2017, published 2020):
Where two headings read alike, the source gives them in different places.

Experiments:
[1] = Phase 1b clinical study (NCT01814826): plasma PK of PEV in combination with AZA; assay type: in vivo, human; conditions: for Cmax / half-life / Tmax: human; for Cmax / half-life / Tmax / AUC24 / AUC48: plasma; for Cmax / AUC24 / AUC48: geometric mean; for half-life: mean; for Tmax: median
Procedure: Serial blood samples for the determination of PEV concentrations were obtained during the first cycle of treatment, at pre-specified time points before and up to 48 hours after the start of the infusion on days 1 and 5.

[2] = system: patients with relapsed/refractory AML and MDS; conditions: single-agent PEV, cited from earlier work
[3] = system: AML cells; conditions: cited from earlier work; for combination effect on viability: Combination Index and Blending Synergy Analysis
[4] = single-agent PEV, cited from earlier work
[5] = system: older unfit patients with increased marrow blasts (>30%); conditions: cited from earlier work
[6] = system: patients with AML; conditions: patients with AML on the Austrian AZA registry; cited from earlier work
[7] = intravenous, dose escalation, 20 mg/m^2 cohort (N = 6), cycle 1, day 1
[8] = intravenous, dose escalation, 20 mg/m^2 cohort (N = 6), cycle 1, day 5
[9] = intravenous, dose escalation, 30 mg/m^2 cohort (N = 3), cycle 1, day 1
[10] = iv, MTD expansion, IV AZA cohort (N = 26), cycle 1, day 1
[11] = iv, MTD expansion, IV AZA cohort (N = 26), cycle 1, day 5
[12] = sc, MTD expansion, SC AZA cohort (N = 28), cycle 1, day 1
[13] = sc, MTD expansion, SC AZA cohort (N = 28), cycle 1, day 5
[14] = dose escalation, 20 mg/m^2 cohort (N = 6), cycle 1, day 1
[15] = dose escalation, 20 mg/m^2 cohort (N = 6), cycle 1, day 5
[16] = dose escalation, 30 mg/m^2 cohort (N = 3), cycle 1, day 1
[17] = AZA-AML-001, randomized AZA or CCR

NS(=O)(=O)OC[C@@H]1C[C@@H](n2ccc3c(N[C@H]4CCc5ccccc54)ncnc32)C[C@@H]1O [PEV, ((1S,2S,4R)-4-{4-[(1S)-2,3-dihydro-1H-inden-1-ylamino]-7H-pyrrolo[2,3-d]pyrimidin-7-yl}-2-hydroxycyclopentyl)methyl sulfamate]
observed accumulation ratio Rac ([1]; day 5 versus day 1, five days of continuous dosing with AZA): ~1
Cmax [1, 7]: 158 ng/mL
half-life [1, 7]: 7.8 h
Tmax [1, 7]: 1.06 h
Cmax [1, 8]: 165 ng/mL
half-life [1, 8]: 7.98 h
Tmax [1, 8]: 0.99 h
Cmax [1, 9]: 299 ng/mL
half-life [1, 9]: 7.39 h
Tmax [1, 9]: 0.98 h
Cmax [1, 10]: 155 ng/mL
half-life [1, 10]: 7.45 h
Tmax [1, 10]: 1.01 h
Cmax [1, 11]: 164 ng/mL
half-life [1, 11]: 8.07 h
Tmax [1, 11]: 1 h
Cmax [1, 12]: 152 ng/mL
half-life [1, 12]: 7.3 h
Tmax [1, 12]: 1 h
Cmax [1, 13]: 148 ng/mL
half-life [1, 13]: 7.89 h
Tmax [1, 13]: 0.98 h
AUC24 ([1]; MTD expansion, IV AZA cohort (N = 26), cycle 1, day 1): 861 ng·h/mL
AUC24 ([1]; MTD expansion, IV AZA cohort (N = 26), cycle 1, day 5): 921 ng·h/mL
AUC48 ([1]; MTD expansion, IV AZA cohort, N = 12, cycle 1, day 1): 976 ng·h/mL
AUC48 ([1]; MTD expansion, IV AZA cohort, N = 13, cycle 1, day 5): 1100 ng·h/mL
AUC24 ([1]; MTD expansion, SC AZA cohort (N = 28), cycle 1, day 1): 890 ng·h/mL
AUC24 ([1]; MTD expansion, SC AZA cohort (N = 28), cycle 1, day 5): 926 ng·h/mL
AUC48 ([1]; MTD expansion, SC AZA cohort, N = 11, cycle 1, day 1): 1000 ng·h/mL
AUC48 ([1]; MTD expansion, SC AZA cohort, N = 18, cycle 1, day 5): 1100 ng·h/mL
AUC24 [1, 14]: 990 ng·h/mL
AUC48 [1, 14]: 1110 ng·h/mL
AUC24 [1, 15]: 986 ng·h/mL
AUC48 [1, 15]: 1090 ng·h/mL
AUC24 [1, 16]: 1640 ng·h/mL
AUC48 [1, 16]: 1770 ng·h/mL
PEV PK in the presence of AZA compared with historical single-agent data ([1]; systemic exposure): not altered
DLTs at starting dose (PEV 20 mg/m^2 (n=6) with AZA, dose escalation): absence of DLTs
final posterior estimate of probability of toxicity (PEV 20 mg/m^2, CRM model): 24%
DLTs in the MTD expansion cohort (PEV 20 mg/m^2 with AZA (n=55), grade ≥3 transaminase elevation): two additional patients experienced DLTs
patients who experienced a DLT (PEV 30 mg/m^2 dose level (n=3) with AZA, grade 2 bilirubin elevation, grade 4 AST elevation): two of the three
MTD for PEV (combined with AZA in standard doses, IV days 1, 3, 5 of 28-day cycles): 20 mg/m^2
Overall response rate (ORR) ([2]; schedule A, patients treated at or below the MTD (4/23)): 17%
Overall response rate (ORR) ([2]; schedule B, patients treated at or below the MTD (2/19)): 10%
DNA damage and cell death ([3]; PEV combined with AZA compared with either agent alone, immunoblotting and flow cytometry): significantly increased DNA damage and cell death
combination effect on viability ([3]; PEV with AZA): synergistically lethal
combination effect on viability ([3]; PEV with decitabine): synergistically lethal
maximum tolerated dose (MTD) ([4]; schedule A: 1-hour IV infusion days 1, 3, 5 every 21 days): 59 mg/m^2
dose-limiting toxicity ([4]; schedule A): elevation of alanine aminotransferase (ALT)/aspartate aminotransferase (AST)
maximum tolerated dose (MTD) ([4]; schedule B: days 1, 4, 8, 11 every 21 days): 83 mg/m^2
dose-limiting toxicity ([4]; schedule B): Multi-organ failure (MOF)

Nc1ncn([C@@H]2O[C@H](CO)[C@@H](O)[C@H]2O)c(=O)n1 [AZA, azacitidine]
1-year survival [5, 17]: 46.5%
median OS [5, 17]: 10.4 months
response rates [5, 17]: 27.8%
composite CR/PR rate ([5]; patients randomized to AZA alone, large randomized French study (ref 6)): 29%
median OS [6]: ~10 months
